# Assay results as given in ChEMBL document CHEMBL1144539, “Fluoro-ketopyranosyl nucleosides: synthesis and biological evaluation of 3-fluoro-2-keto-beta-D-glucopyranosyl derivatives of N4-benzoyl cytosine” (Bioorg Med Chem, 2007).
# Key:
# [1] = Antiviral activity against bovine rotavirus RF in MA 104 cells assessed as neutralization of virus in solution before cell attachment; format: functional, cell-based, Bovine rotavirus strain RF; details: Rotavirus A
# Caco-2 [2] = assay: Growth inhibition of human Caco-2 cells after 72 hrs; format: functional, cell-based; details: Caco-2, 72 h
# Caco-2 [3] = assay: Cytotoxicity against human Caco-2 cells after 72 hrs; format: cell-based; details: Caco-2, 72 h
# [4] = Inhibition of bovine rotavirus RF infectivity following virus attachment to MA 104 cells; format: functional, cell-based, Bovine rotavirus strain RF; details: Rotavirus A
# [5] = Antiviral activity against bovine rotavirus RF in MA104 cells; format: functional, cell-based, Bovine rotavirus strain RF; details: Rotavirus A
# [6] = Stimulation of proliferation of monkey MA104 cells at 30 ng/mL after 72 hrs relative to control; format: functional, Macaca mulatta
IC50 [1] [µg/mL],IC50 (Caco-2 [2]) [µg/mL],IC50 [4] [µg/mL],IC50 [5] [µg/mL],SMILES,IC50 (Caco-2 [3]) [µg/mL],Activity [6] [%]
60,15,15,4,Cc1cn([C@H]2C[C@H](N=[N+]=[N-])[C@@H](CO)O2)c(=O)[nH]c1=O [ZIDOVUDINE],15,
70,2500,70,,O=C(Nc1ccn(C[C@@H]2O[C@H](CO)[C@@H](O)[C@H](F)C2=O)c(=O)n1)c1ccccc1,1500,40
